Laboratory results taken from US20210353595A1, “USE OF MELATONIN IN PREPARATION OF MEDICAMENT FOR INHIBITING AND/OR KILLING BACTERIUM” (priority 2020, published 2021).

Experiments:
Pneumococcus = experiment: Growth curve with melatonin and citric acid; assay type: cell-based, Diplococcus pneumoniae; settings: MT 1-3 mg/mL, FIG. 27
Description: (§1) In additional studies, 1 mL of Klebsiella pneumoniae, Pseudomonas aeruginosa, Diplococcus pneumoniae and Streptococcus pneumoniae at the logarithmic growth stage was added into 100 mL of fresh and sterile Martin broth medium containing different concentrations of melatonin and citric acid (CA) (MT-1 mg/mL, MT-1 mg/mL-CA-1 mg/mL, MT-1 mg/mL-CA-2 mg/mL, MT-1 mg/mL-CA-3 mg/mL; MT-2 mg/mL, MT-2 mg/mL-CA-1 mg/mL, MT-2 mg/mL-CA-2 mg/mL, MT-2 mg/mL-CA-3 mg/mL; MT-3 mg/mL, MT-3 mg/mL-CA-1 mg/mL, MT-3 mg/mL-CA-2 mg/mL MT-3 mg/mL-CA-3 mg/mL).

inflammatory cytokines = experiment: RT-PCR and ELISA of inflammatory cytokines after Pasteurella multocida infection; assay type: in vivo, C57BL/6 mice; settings: 24 hours after infection, lung tissues and serum
Description: The mouse lung tissue samples were collected, and the total RNA of mouse lung tissues was extracted according to the instructions of the total RNA extraction kit (Invitrogen). According to the instructions of a TaKaRa reverse transcription kit, cDNA was prepared and reverse transcribed with the general process as follows:
The process of qRT-PCR was carried out with reference to previous studies, and (3-actin was used as a reference gene to normalize the transcription level of the target gene. The specific primer sequences used are shown in Table 2. The relative expression level of the gene was calculated according to the equation 2^−(ΔΔCt), wherein ΔΔCt=(CT of the target gene−Ct of the internal reference) of the experimental group−(Ct of the target gene−Ct of the internal reference) of the control group.
ELISA samples were divided into serum samples and lung tissue homogenate samples. Among them, the process of collecting serum was collecting mouse whole blood from the eyeball, storing overnight at 4° C., centrifuging at 5000 rpm for 10 min, collecting the supernatant and storing it at −20° C. for later use. While the preparation process of the mouse lung homogenate was collecting lung tissues, adding 2 mL sterile normal saline to prepare a homogenate, then repeatedly freezing and thawing the homogenate in liquid nitrogen (5 min) and ice-water bath for 3 times, then centrifuging at 4° C. and 12000 rpm for 10 min, and collecting the supernatant for later use. According to the instructions of the kit, the serum and the supernatant of lung tissue homogenate as prepared were detected for IL-10, IL-4, IL-6, IL-10, TNF-α and IFN-γ (eBioscience).

[1] = system: citrate synthase in Streptococcus; experiment: Citrate synthase activity of bacteria after treatment; assay type: cell-based, Streptococcus pneumoniae; settings: MT 1-3 mg/mL, 12 h, also with exogenous citric acid, FIG. 28
Description: (§2) Further, 1 mL of Klebsiella pneumoniae, Pseudomonas aeruginosa, Diplococcus pneumoniae and Streptococcus pneumoniae at the logarithmic growth stage was added into 100 mL of fresh and sterile Martin broth liquid medium containing different concentrations of melatonin and citric acid (MT-1 mg/mL, MT-2 mg/mL, MT-3 mg/mL, CA-1 mg/mL, CA-2 mg/mL, CA-3 mg/mL, MT-1 mg/mL-CA-1 mg/mL, MT-2 mg/mL-CA-2 mg/mL, MT-3 mg/mL-CA-3 mg/mL) added was. Melatonin-free DMSO was used as the solvent control group, and the bacterial cells were cultured in a constant-temperature shaker at 37° C. and 220 rpm for 12 h. Thereafter, 1 mL of the bacterial solution was pipetted and centrifuged at 3000 r/min for 10 minutes. The bacterial cells were then collected and determined for citrate synthase activity according to the protocol of the instructions for the kit. Each experiment was repeated three times, and each group was set in triplicate.

[2] = system: citrate synthase in Pneumococcus; experiment: as above; assay type: cell-based, Diplococcus pneumoniae; settings: MT 1-3 mg/mL, 12 h, also with exogenous citric acid, FIG. 28
Description: as §2

Pseudomonas aeruginosa = experiment: Growth curve with melatonin and citric acid; assay type: cell-based; settings: MT 1-3 mg/mL, FIG. 27
Description: as §1

Klebsiella pneumoniae = experiment: Growth curve with melatonin and citric acid; assay type: cell-based; settings: MT 1-3 mg/mL, FIG. 27
Description: as §1

Pasteurella multocida = experiment: Non-targeted metabonomic analysis; assay type: cell-based; settings: 1 mg/mL of MT, 12 hours
Description: 1 mL of fresh Pasteurella multocida (P. multocida) at the logarithmic growth stage was added into 100 mL of fresh Martin liquid medium containing 1 mg/mL of MT, and MT-free DMSO was used as a solvent control group. All cultures were incubated with shaking at 37° C. and 220 rpm for 12 hours. The bacterial samples were centrifuged at a speed of 3000 rpm/min at 4° C. for 10 minutes, the supernatant was removed, and the bacterial cells were collected and washed with PBS for 3 times. The bacterial cells were rapidly frozen in liquid nitrogen, transferred to dry ice, and sent to Shanghai Baiqu Biomedical Technology Co., Ltd. for metabolomic analysis (Q Exactive Orbitrap, Thermo Fisher Scientific, USA). Through the non-targeted metabonomic study of Pasteurella multocida cells before and after melatonin treatment, it was clarified which metabolic pathway of the bacteria is affected by melatonin in exerting the antibacterial activity of melatonin.

## COc1ccc2[nH]cc(CCNC(C)=O)c2c1 [melatonin, N-acetyl-5-methoxytryptamine]
Pneumococcus
  antibacterial activity: exhibits antibacterial activity
Inflammatory cytokines
  expression of IFN-γ: significantly reduced
  expression of IL-6: significantly reduced
  expression of TNF-α: significantly reduced
  transcription and expression of IL-4: promoted
  transcription and expression of IL-10: promoted
[1]
  enzyme activity of citrate synthase: not influenced
[2]
  enzyme activity of citrate synthase: not influenced
Pseudomonas aeruginosa
  antibacterial activity: exhibits antibacterial activity
Klebsiella pneumoniae
  antibacterial activity: exhibits antibacterial activity
Pasteurella multocida
  acetyl coenzyme A level in bacterial cells: significantly up-regulated
  citric acid level in bacterial cells: significantly down-regulated
  pyruvic acid level in bacterial cells: significantly up-regulated
